These results are taken from patent US8278100B2, “Lasonolide compounds as reagents for inducing premature chromosome condensation and methods for treating disorders” (The United States of America, as Represented by the …, priority 2008, dated 2012).

Assay [1] concerns phosphorylated-H3 Ser28 in CA46 cells. The assay can be described thus: Immunofluorescence assay. The class given is cell-based, human. The protocol: After drug treatments, CA46 cells were cytospun on the slides. Slides were fixed for 20 min with 4% paraformaldehyde in PBS (pH 7.4), and washed twice with PBS. After incubation for 20 min with 70% ethanol and washing with PBS, the cells were incubated in blocking buffer [8% bovine serum albumin (BSA) in PBS] for 1 h before incubation for 2 h with primary antibodies against phosphorylated-H3 Ser28 (Cell signaling) (FIG. 5). Slides were incubated for additional 1 h with the Alex488-conjugated secondary antibody (Alexa Fluoro 488 donkey anti-goat IgG, Molecular Probes, Invitrogen, CA). After three washes in PBS, cells were stained with 0.5 μg/mL propidium iodide (PI) and 100 μg/mL RNase A (Sigma, Mo.) for 15 min in the dark. Finally, slides were washed with PBS for three times and mounted with Vectashield anti-fade mounting media (Vector Laboratories, Inc., Burlingame, Calif.). Images were taken using a Nikon Eclipse TE-300 confocal microscope.

In assay [2] the test system is MCF-7 cells. Kind of assay: BrdU incorporation. The class given is cell-based. The protocol: (§1) A number of cells (5×10^5) were pulse-labeled with 50 μmol/L BrdU (Calbiochem, La Jolla, Calif.) for 30 minutes. Cells were collected, fixed in 70% ethanol at 4° C., washed with PBS, resuspended in 3 mL 2 mol/L HCl/0.5% Triton X-100, and left at room temperature for 30 minutes. Cells were spun down after adding 6 mL 0.1 M sodium borate (pH 8.5). Pellets were washed with PBS/0.5% Tween-20 twice, then resuspended in 15 μL FITC-conjuncted anti-BrdU antibody (Becton Dickinson, Franklin Lakes, N.J.). After incubation with the anti-BrdU antibody at room temperature for 60 minutes, pellets were washed once with PBS, and resuspended in 500 μL of PI solution (50 μg/mL PI and 50 μg/mL RNase). Analyses were done with a FACScan flow cytometer (Becton Dickinson, San Jose, Calif.) (FIG. 2B).

Assay [3] concerns actin network in MDA-MB-231 cells. Kind of assay: Actin staining with phalloidin. The assay is classed as cell-based, human. As to the method: Cells were fixed with 4% paraformaldehyde and permeabilized with PBS containing 0.1% Triton X-100. After blocking with 1% bovine serum albumin for 30 min. Cells were incubated with Alexa Fluor 488-conjugated phalloidin (Molecular Probes) to stain actin stress fibers.

Assay [4] has as its system HT 29 cells. The assay can be described thus: Cell cycle analysis. The assay is classed as cell-based. The following applies: 24 h treatment. As to the method:
(§2) After treatment, cells were collected, washed twice with ice-cold PBS, and fixed overnight with 70% precooled (−20° C.) ethanol. Fixed cells were resuspended in PBS containing 0.02 mg/mL RNase A (Roche, USA) and incubated at 37° C. for 15 min. Next, the cells were stained with 0.01 mg/mL propidium iodide (Sigma) in the dark at room temperature for 10 min. The DNA content was analyzed by flow cytometry using a FACSCalibur (Becton Dickinson, Sunnyvale, Calif.) with Cellquest and Modfit LT3.0 software (Becton Dickinson) (FIGS. 1D & 2A).

Assay [5] relates to HCT 116 cells. Kind of assay: Cell cycle analysis. The class given is cell-based. The following applies: 24 h treatment. The protocol:
as §2

Assay [6] deals with MCF-7 cells. Kind of assay: Cell cycle analysis. The assay is classed as cell-based. The following applies: 24 h treatment. The protocol:
as §2

Assay [7] relates to MDA-MB-231 cells. Kind of assay: Transwell migration assay. The following applies: 6 h. The assay is classed as cell-based, human. As to the method: The effect of Lasonolide A on the migration of breast cancer MDA-MB-231 cells was determined in a transwell Boyden Chamber (Costar, Mass.) using a polycarbonate filter with a pore size of […], which was coated with 0.2% gelatin, balancing with gelatin at 37° C. for 1 h, then removal of the gelatin and covering with DMEM without serum overnight at 37° C. In the standard assay, after removing medium, 0.1 mL of cell suspension (1×10^5 cells/ml, in serum-free medium) with Lasonolide A or 0.1% DMSO (v/v) was added to the upper compartment of the chamber. The lower compartment contained 0.6 mL of DMEM medium supplemented with 20% serum. After incubation for 6 h at 37° C., the filter was removed and fixed with ethanol. Cells remaining on the upper surface of the filter (non-migrated) were scraped gently. Then, migrated cells on the lower surface of the filter were stained with 0.1% crystal violet and taken photographs under microscope (FIG. 6C).

The test system of assay [8] is breast cancer MDA-MB-231 cells. The assay can be described thus: PCC induction and PI staining. The assay is classed as cell-based, human. The following applies: 1 h. As to the method: (§3) Burkitt's Lymphoma CA46 cells (500,000) (FIG. 1B) or breast cancer MDA-MB-231 cells (500,000) (FIG. 1A) were treated by 100 nM Lasonolide A (stock solution 100 μM in DMSO) for 1 h. Lymphocytes were treated with 200 nM Lasonolide A for 1 h. Cells were harvested with centrifuging on 2,000 rpm for 5 min at 4° C. Pellets were washed once by PBS and re-suspended in 1 mL PBS. 200 μL cells mixture were added to the chamber for cytospining. Cells were cytospun on 800 rpm for 10 min; slides were fixed in fresh-made 4% paraformaldehyde fixation for 20 min at room temperature, then moved to 70% ethanol for 20 min. Slides were stained with Propidium Iodide (“PI”) (20 μg/mL) and RNase A (100 μg/mL) for 15 min. Slides were washed with PBS for three times and mounted with Vectashield anti-fade mounting media (Vector Laboratories, Inc., Burlingame, Calif.). Images were taken using a Nikon Eclipse TE-300 confocal microscope.

For assay [9], the system named is Burkitt's Lymphoma CA46 cells. Kind of assay: PCC induction and PI staining. The assay is classed as cell-based, human. The following applies: 1 h. The protocol: as §3
For assay [10], the system named is MDA-MB-231 cells. The assay can be described thus: Cell cycle analysis. The assay is classed as cell-based, human. The following applies: 24 h treatment. The protocol: as §2
For assay [11], the system named is CA46 cells. Kind of assay: Cell cycle analysis. The assay is classed as cell-based, human. The following applies: 24 h treatment. As to the method:
as §2

For assay [12], the system named is phosphorylated-H3 Ser28. The assay can be described thus: Western blot. The assay is classed as cell-based. The protocol: (§4) Protein levels were measured by Western blotting with corresponding specific primary antibodies, including those against Cdc2 p34(Santa Cruz), cyclinB1 (Santa Cruz) (FIG. 4A), Anti-Acetylated-H3K9 (Upstate), phosphorylated-H3 Ser28 (Cell signaling). GAPDH was as the loading control.

For assay [13], the system named is cyclinB1. The assay can be described thus: Western blot. The assay is classed as cell-based. As to the method:
as §4

Assay [14] relates to Acetylated-H3K9. The assay can be described thus: Western blot. The assay is classed as cell-based. The protocol:
as §4

Assay [15] deals with CA 46 cells. Kind of assay: BrdU incorporation. The assay is classed as cell-based, human. The protocol: as §1
Background: Uptake of a labelled nucleoside into DNA is a usual measure of proliferation.

Assay [16] deals with MDA-MB-231 cells. Kind of assay: BrdU incorporation. The class given is cell-based, human. As to the method:
as §1

Several values for one entry are separate records, joined by “and”; a condition that tells them apart may be missing. Equal values may be shown once. Entries after “also recorded” stand apart in the source; their conditions may differ.

On to `C=C(CCC(C)C)COC(=O)[C@H](O)C/C=C\C[C@@H]1O[C@@H]2/C=C/C/C=C/C(C)=C\[C@H]3O[C@@H](C/C=C/C=C/C(=O)O[C@H](C2)[C@@]1(C)CO)C[C@H](O)[C@H]3C` [Lasonolide A], for which the “phosphorylation of H3 (Ser28), immunofluorescence” value in [1] is “showed the phosphorylation of H3 (Ser28)”. The “DNA replication (BrdU incorporation)” value in assay [2], in assay [15] and in assay [16] was “decelerated DNA replication” each time. For the same compound, in [3], the “actin network / cytoskeleton” value is listed as “reorganized the cytoskeleton system; also recorded: reorganized the actin network”. Also, the cell cycle arrest result is on record as “G2/M phase arrest” in assay [4]; “G2/M phase arrest” in assay [5]; “G2/M phase arrest” in [6]; “induced cell cycle arrest at G2/M phase” in [10]; “induced cell cycle arrest at G2/M phase” in [11]. Moreover, in assay [7], the cell migration result was “inhibited migration”. Besides, the “PCC induction (in words)” value in assay [8] (100 nM) and in [9] (100 nM) was “induced premature chromosome condensation (PCC)” in each case. In assay [8], the “cells with PCC” value is reported as 13%. In [9] (100 nM Lasonolide A), the “cells with premature chromosome condensation (PCC)” value was 97.9% and 99.5%. Besides, in [12], the “phosphorylation of H3 (Ser28)” value is listed as “increased the phosphorylation of H3 (Ser28)”. In addition, the “protein level of cyclinB1” value in assay [13] was “decreased the protein level of cyclinB1”. The “acetylation of histone H3” value in assay [14] is listed as “decreased the acetylation of histone H3 Lysine 9; also recorded: decreased the acetylation of H3 (Arg9)”. Further, the “H3 acetylation induced by the HDAC inhibitor SAHA” value in assay [14] (with SAHA) is listed as “attenuated the enhancement of H3 acetylation”.
